Where a name gives a salt, the structure may show the parent alone. Read-outs that look alike come from different tables or passages of the source.
Test system: ovarian cancer cells with (OVCAR8, OVCAR4) or without (OVSAHO, CAOV3) MYC-HSF1 amplification
Test: Epigenetic inhibitor drug screen, cell viability (Cell Titer Blue)
Format: cell-based
[1] = 10 uM, 48 hrs, average relative cell viability (vs 1% DMSO) of non-amplified cells (OVSAHO, CAOV3) minus that of MYC-HSF1 amplified cells (OVCAR8, OVCAR4), positive = greater response in amplified cells
[2] = 10 uM, 48 hrs, average relative cell viability (vs 1% DMSO) of non-amplified cells (OVSAHO, CAOV3) minus that of MYC-HSF1 amplified cells (OVCAR8, OVCAR4), positive = greater response in amplified cells, 10 µM

Compound: O=C(CCl)Nc1ccc(S(=O)(=O)c2ccc(NC(=O)CCl)cc2)cc1 [TC-E 5003]
- Non Amp - AMP (POC) 10 uM [1]: 0.7453 POC

Compound: Cc1ccc(NC(=O)CCCCCC(=O)Nc2ccccc2N)cc1 [TC-H 106]
- Non Amp - AMP (POC) 10 uM [1]: 8.223 POC

Compound: N#Cc1c(-c2ccccc2)cc(-c2cc(Br)ccc2O)[nH]c1=O [TCS PIM-1 1]
- Non Amp - AMP (POC) 10 uM [1]: 0.7424 POC

Compound: Cc1cnc(Nc2ccc(N3CCN(C)CC3)cc2)nc1Nc1cccc(S(=O)(=O)NC(C)(C)C)c1 [TG101209]
- Non Amp - AMP (POC) 10 uM [1]: 15.1 POC

Compound: Cc1cnc(Nc2ccc(OCCN3CCCC3)cc2)nc1Nc1cccc(S(=O)(=O)NC(C)(C)C)c1 [TG101348 (SAR302503)]
- Non Amp - AMP (POC) 10 uM [1]: −1.346 POC

Compound: O=C(NCC1(c2nc(-c3ccccc3)cs2)CCOCC1)c1cccc(-c2noc(C(F)(F)F)n2)c1 [TMP269]
- Non Amp - AMP (POC) 10 uM [1]: 16.29 POC

Compound: CC(C)(CNC(=O)c1cccc(-c2noc(C(F)(F)F)n2)c1)c1coc(-c2ccccc2)n1 [TMP-195]
- Non Amp - AMP (POC) 10 uM [1]: 0.5425 POC

Compound: N#Cc1ccc(OC2CCC(NC(=O)CCSc3nc4ccccc4c(=O)[nH]3)CC2)cc1 (stereo not drawn) [Tankyrase Inhibitors (TNKS) 49]
- Non Amp - AMP (POC) 10 uM [1]: −7.406 POC

Compound: CN(C)CCCCC(=O)Nc1ccc(NC(=S)NC(=O)c2ccc(C(C)(C)C)cc2)cc1.Cl [Tenovin-6 (hydrochloride), Tenovin-6]
- Non Amp - AMP (POC) 10 uM [1]: −3.503 POC

Compound: CN(C)CCCCC(=O)Nc1ccc(NC(=S)NC(=O)c2ccc(C(C)(C)C)cc2)cc1 [Tenovin-6]
- Non Amp - AMP (POC) 10 uM [1]: 0.07933 POC

Compound: Nc1nc2nc[nH]c2c(=S)[nH]1 [Thioguanine]
- Non Amp - AMP (POC) 10 uM [2]: 9.104 POC

Compound: CCCCCCCCCCCCCC(=S)NCCCC[C@H](NC(=O)OCc1ccccc1)C(=O)Nc1ccccc1 [Thiomyristoyl]
- Non Amp - AMP (POC) 10 uM [1]: −0.8381 POC

Compound: CCOC(=O)NNc1nncc2ccccc12 [Todralazine (hydrochloride), Todralazine]
- Non Amp - AMP (POC) 10 uM [1]: 13.07 POC

Compound: C[C@@H]1CCN(C(=O)CC#N)C[C@@H]1N(C)c1ncnc2[nH]ccc12 [Tofacitinib (CP-690550) Citrate, Tofacitinib]
- Non Amp - AMP (POC) 10 uM [2]: 3.666 POC

Compound: C[C@@H]1CCN(C(=O)CC#N)C[C@@H]1N(C)c1ncnc2[nH]ccc12 [Tofacitinib (CP-690550, Tasocitinib), Tofacitinib]
- Non Amp - AMP (POC) 10 uM [2]: −2.781 POC

Compound: CC(/C=C/C(=O)NO)=C\[C@@H](C)C(=O)c1ccc(N(C)C)cc1 [Trichostatin A]
- Non Amp - AMP (POC) 10 uM [2]: 47.34 POC
- Non Amp - AMP (POC) 10 uM (10 uM, 48 hrs, average relative cell viability (vs 1% DMSO) of non-amplified cells (OVSAHO, CAOV3) minus that of MYC-HSF1 amplified cells (OVCAR8, OVCAR4), positive = greater response in amplified cells, listed as Trichostatin A (TSA), 10 µM): 28.28 POC

Compound: O=C(CCCCCCC(=O)Nc1ccc([C@H]2O[C@@H](CSc3nc(-c4ccccc4)c(-c4ccccc4)o3)C[C@@H](c3ccc(CO)cc3)O2)cc1)NO [Tubacin]
- Non Amp - AMP (POC) 10 uM [1]: −15.59 POC

Compound: CN1CCc2c(c3ccccc3n2Cc2ccc(C(=O)NO)cc2)C1.Cl [Tubastatin A HCl]
- Non Amp - AMP (POC) 10 uM [1]: 19.35 POC

Compound: CN1CCc2c(c3ccccc3n2Cc2ccc(C(=O)NO)cc2)C1 [Tubastatin A]
- Non Amp - AMP (POC) 10 uM [1]: 15.75 POC

Compound: CCCCNNC(=O)c1ccc(Br)cc1 [UF010]
- Non Amp - AMP (POC) 10 uM [2]: 54.18 POC
- Non Amp - AMP (POC) 10 uM (10 uM, 48 hrs, average relative cell viability (vs 1% DMSO) of non-amplified cells (OVSAHO, CAOV3) minus that of MYC-HSF1 amplified cells (OVCAR8, OVCAR4), positive = greater response in amplified cells, listed as UF 010, 10 µM): 21.86 POC

Compound: Cc1noc(C)c1-c1ccc(-c2nc3cnccn3c2NC(C)(C)C)cc1 [UMB-32]
- Non Amp - AMP (POC) 10 uM [1]: −3.692 POC

Compound: COc1cc2c(NC3CCN(C)CC3)nc(N3CCCN(C)CC3)nc2cc1OCCCN(C)C [UNC0224]
- Non Amp - AMP (POC) 10 uM [2]: 7.132 POC
- Non Amp - AMP (POC) 10 uM (10 uM, 48 hrs, average relative cell viability (vs 1% DMSO) of non-amplified cells (OVSAHO, CAOV3) minus that of MYC-HSF1 amplified cells (OVCAR8, OVCAR4), positive = greater response in amplified cells, listed as UNC 0224, 10 µM): −1.296 POC

Compound: COc1cc2c(NC3CCN(C)CC3)nc(N3CCCN(C)CC3)nc2cc1OCCOCCN(C)C [UNC0321 (trifluoroacetate salt)]
- Non Amp - AMP (POC) 10 uM [1]: 0.4275 POC

Compound: COc1cc2nc(N3CCCC3)nc(NCCCCCN3CCCC3)c2cc1OC [UNC0379]
- Non Amp - AMP (POC) 10 uM [1]: 21.92 POC

Compound: COc1cc2c(NC3CCN(C(C)C)CC3)nc(C3CCCCC3)nc2cc1OCCCN1CCCC1 [UNC0638]
- Non Amp - AMP (POC) 10 uM [1]: −12.13 POC

Compound: COc1cc2c(NC3CCN(CC4CCCCC4)CC3)nc(N3CCCN(C(C)C)CC3)nc2cc1OCCCN1CCCCC1 [UNC 0631]
- Non Amp - AMP (POC) 10 uM [1]: 34.73 POC

Compound: COc1cc2c(NC3CCN(C(C)C)CC3)nc(N3CCC(F)(F)CC3)nc2cc1OCCCN1CCCC1 [UNC 0642]
- Non Amp - AMP (POC) 10 uM (10 µM): 6.253 POC
- Non Amp - AMP (POC) 10 uM (listed as UNC0642, 10 µM): −5.587 POC

Compound: COc1cc2c(NC3CCN(C4CCCCC4)CC3)nc(N3CCCN(C(C)C)CC3)nc2cc1OCCCN1CCCCC1 [UNC 0646]
- Non Amp - AMP (POC) 10 uM [1]: 45.25 POC

Compound: O=C(COc1cccc2c(=O)[nH]ccc12)c1ccccc1 [UPF 1069]
- Non Amp - AMP (POC) 10 uM [1]: −6.052 POC

Compound: Cc1cc(Nc2cc(N3CCN(C)CC3)nc(Sc3ccc(NC(=O)C4CC4)cc3)n2)[nH]n1 [VX-680 (MK-0457, Tozasertib), Tozasertib]
- Non Amp - AMP (POC) 10 uM [1]: −20.25 POC

Compound: CCCC(CCC)C(=O)[O-].[Na+] [Valproic acid sodium salt]
- Non Amp - AMP (POC) 10 uM [1]: −19.36 POC

Compound: CCCC(CCC)C(=O)O [Valproic acid]
- Non Amp - AMP (POC) 10 uM [2]: −3.268 POC

Compound: C[C@]1(c2nc3c(C(N)=O)cccc3[nH]2)CCCN1 [Veliparib dihydrochloride]
- Non Amp - AMP (POC) 10 uM (10 uM, 48 hrs, average relative cell viability (vs 1% DMSO) of non-amplified cells (OVSAHO, CAOV3) minus that of MYC-HSF1 amplified cells (OVCAR8, OVCAR4), positive = greater response in amplified cells, dihydrochloride, 10 µM): −2.841 POC

Compound: O=C(CCCCCCC(=O)Nc1ccccc1)NO [Vorinostat (SAHA, MK0683), Vorinostat]
- Non Amp - AMP (POC) 10 uM [2]: 37.32 POC
- Non Amp - AMP (POC) 10 uM (10 uM, 48 hrs, average relative cell viability (vs 1% DMSO) of non-amplified cells (OVSAHO, CAOV3) minus that of MYC-HSF1 amplified cells (OVCAR8, OVCAR4), positive = greater response in amplified cells, listed as SAHA, 10 µM): 44.79 POC

Compound: COC(=O)c1ccc(N2CCN(C)CC2)c(NC(=O)c2cccc(OC)c2)c1 [WDR5 0103]
- Non Amp - AMP (POC) 10 uM [1]: 1.921 POC

Compound: COc1cc2ncnc(Nc3ccc(O)c(Br)c3)c2cc1OC [WHI-P154]
- Non Amp - AMP (POC) 10 uM [1]: −1.78 POC

Compound: COc1ccc(-n2c(SCCCN3C(=O)c4cccc5cccc(c45)C3=O)nnc2-c2ccncc2)cc1 [WIKI4]
- Non Amp - AMP (POC) 10 uM [1]: 10.07 POC

Compound: C[C@H](NC(=O)/C(C#N)=C/c1cccc(Br)n1)c1ccccc1 [WP1066]
- Non Amp - AMP (POC) 10 uM [1]: 3.079 POC

Compound: CCC(=O)Nc1cccc(Oc2nc(Nc3ccc(N4CCN(C)CC4)cc3OC)ncc2Cl)c1 [WZ4003]
- Non Amp - AMP (POC) 10 uM [1]: −24.51 POC

Compound: Oc1nc(-c2ccc(C(F)(F)F)cc2)nc2c1CSCC2 [XAV-939]
- Non Amp - AMP (POC) 10 uM [1]: −6.034 POC

Compound: O=C(Nc1ccc(-c2ccnc(Nc3ccc(N4CCOCC4)cc3)n2)cc1)C1CCCN1 (stereo not drawn) [XL019]
- Non Amp - AMP (POC) 10 uM [1]: −14.18 POC

Compound: CC(C)c1cc(CNc2nc(Nc3cc(C4CC4)[nH]n3)cc(N3CCN(C)CC3)n2)on1 [XL228]
- Non Amp - AMP (POC) 10 uM [1]: 17.3 POC

Compound: CC(C)N(CCC(=O)c1ccc2ccccc2c1)Cc1ccccc1 [ZM 39923 HCl]
- Non Amp - AMP (POC) 10 uM [1]: −4.611 POC

Compound: COc1cc2c(Nc3ccc(NC(=O)c4ccccc4)cc3)ncnc2cc1OCCCN1CCOCC1 [ZM 447439]
- Non Amp - AMP (POC) 10 uM [1]: 0.5089 POC

Compound: C=CC(=O)c1ccc2ccccc2c1 [ZM 449829]
- Non Amp - AMP (POC) 10 uM [1]: 4.711 POC

Compound: O=C([O-])CCC(O)C(=O)[O-].[Na+].[Na+] (stereo not drawn) [a-hydroxyglutaric Acid (sodium salt), a-hydroxyglutaric Acid]
- Non Amp - AMP (POC) 10 uM [1]: 3.785 POC

Compound: O=P(O)(O)OC(CO)CO [β-Glycerophosphate (sodium salt hydrate), β-Glycerophosphate]
- Non Amp - AMP (POC) 10 uM [1]: 2.069 POC

Compound: (−)-Epigallocatechin gallate [(−)-Epigallocatechin gallate (EGCG)]
- Non Amp - AMP (POC) 10 uM: 4.98 POC

Compound: AZD1152
- Non Amp - AMP (POC) 10 uM [1]: −6.485 POC

Compound: CPI-455
- Non Amp - AMP (POC) 10 uM [1]: −8.682 POC

Compound: Ginkgolide C
- Non Amp - AMP (POC) 10 uM: −1.319 POC

Compound: Inauhzin
- Non Amp - AMP (POC) 10 uM [1]: −0.3441 POC

Compound: Oxamflatin
- Non Amp - AMP (POC) 10 uM: 24.33 POC

Compound: SNS-314 Mesylate
- Non Amp - AMP (POC) 10 uM [1]: 1.355 POC

Compound: Sodium Phenylbutyrate
- Non Amp - AMP (POC) 10 uM: −19.07 POC

Source: patent publication US20250011881A1, “MYC-HSF1 DUAL AMPLIFICATION AS A BIOMARKER FOR CANCER TREATMENT” (The Trustees of Indiana University, priority 2023, published 2025)
